Patent publication US8618054B2, “Interleukin-1 receptor antagonists, compositions, and methods of treatment” (Valorisation-Rechereche Société en Commandite, priority 2004, dated 2013)
Marks after values point to notes of the source that are not given here. Values belong to the compound of their own block, whether it stands above or below them. Where a SMILES comes first, the peptide text is derived from it. Where no end group is shown, it is not given here. [ ]: non-standard residue; d: D form.

Assays:
IL-1R/IL-1RacP receptor [1] = biological target: T1, IL-1R/IL-1RacP receptor (Sus scrofa, UniProt A0A5G2QSI4); experiment: IL-1-induced PGE2 synthesis in piglet brain microvascular endothelial cells; format: cell-based, porcine; details: for inhibition of IL-1-induced PGE2 synthesis, compared with parent API-101: alanine scan peptides 10^−6M, endothelial cells; for Emax: Table 4, read-out: PGE2 synthesis in endothelial cells (porcine) Emax (%)
T1 construct: endogenous in cells; host or cells: piglet brain microvascular endothelial cells
T1 sequence (A0A5G2QSI4 21-572): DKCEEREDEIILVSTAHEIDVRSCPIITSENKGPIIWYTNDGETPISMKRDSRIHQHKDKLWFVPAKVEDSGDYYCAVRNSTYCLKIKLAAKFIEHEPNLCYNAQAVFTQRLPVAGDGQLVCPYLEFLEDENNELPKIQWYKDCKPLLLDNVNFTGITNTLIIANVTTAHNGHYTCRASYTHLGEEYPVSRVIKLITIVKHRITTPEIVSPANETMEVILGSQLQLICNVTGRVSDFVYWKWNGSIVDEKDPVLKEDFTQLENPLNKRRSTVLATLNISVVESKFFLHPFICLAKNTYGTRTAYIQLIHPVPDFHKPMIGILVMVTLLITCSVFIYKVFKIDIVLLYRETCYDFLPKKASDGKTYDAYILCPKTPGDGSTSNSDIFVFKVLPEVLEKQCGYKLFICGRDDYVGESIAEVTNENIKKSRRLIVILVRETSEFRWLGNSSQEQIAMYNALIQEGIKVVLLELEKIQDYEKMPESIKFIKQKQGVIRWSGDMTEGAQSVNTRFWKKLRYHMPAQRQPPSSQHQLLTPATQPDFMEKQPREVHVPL
Method: (§1) It is well known in the art that IL-1 induces the synthesis of prostaglandin E2 (PGE2) in endothelial cells and/or chondrocytes in vitro. Therefore, human chondrocytes and piglet brain microvascular endothelial cells were pre-incubated 45-60 minutes at 37° C. with peptide API-101 (^10−6M) and human IL-1 (10 ng/ml) was added in the growing medium. After 24 hours of incubation, growth medium was collected and evaporated. PGE2 measurement was determined by RIA assay with a commercial kit (Cederlane).

IL-1R/IL-1RacP receptor [2] = biological target: T2, IL-1R/IL-1RacP receptor (Homo sapiens, UniProt P14778); experiment: IL-1-induced PGE2 synthesis in human chondrocytes; format: cell-based; design: endogenous in cells; details: alanine scan peptides 10^−6M
T2 sequence (P14778 18-569): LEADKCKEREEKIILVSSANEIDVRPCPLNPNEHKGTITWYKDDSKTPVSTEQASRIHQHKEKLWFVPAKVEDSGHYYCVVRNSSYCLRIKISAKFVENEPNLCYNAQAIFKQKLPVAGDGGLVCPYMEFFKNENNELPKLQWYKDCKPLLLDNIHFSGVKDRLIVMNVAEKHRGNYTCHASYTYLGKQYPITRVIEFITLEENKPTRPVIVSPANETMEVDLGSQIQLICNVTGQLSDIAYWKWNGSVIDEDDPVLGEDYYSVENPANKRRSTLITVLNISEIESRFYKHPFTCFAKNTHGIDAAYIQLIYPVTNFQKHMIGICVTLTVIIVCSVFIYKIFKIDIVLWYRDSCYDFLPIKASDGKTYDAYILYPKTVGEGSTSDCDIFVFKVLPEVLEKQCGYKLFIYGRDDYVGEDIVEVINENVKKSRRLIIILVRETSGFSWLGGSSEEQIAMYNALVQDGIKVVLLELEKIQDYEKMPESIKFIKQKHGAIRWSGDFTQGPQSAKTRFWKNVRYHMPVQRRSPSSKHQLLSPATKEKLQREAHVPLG
Method: as §1

IL-1R/IL-1RacP receptor [3] = biological target: T2, IL-1R/IL-1RacP receptor; experiment: IL-1β-induced proliferation in TF-1 cells; format: cell-based; design: endogenous in cells; host or cells: TF-1 cells
IL-1R/IL-1RacP receptor [4] = experiment: Ex vivo vasomotricity: reversal of IL-1β-induced vasodilation of piglet pial vessels; details: IL-1β 75 ng/ml
Method: Ex vivo vasomotor response on brain vessels was performed as described (Li et al., 1996; Hou et al., 2000; Hou et al., 2001; Hou et al., 2003). Brains were removed from Yorkshire piglets. Slices of cortex exposing the pial vessels were pinned to a wax base of a 20 ml bath containing Krebs buffer (pH 7.4) equilibrated with 95% O2, 5% CO2 and maintained at 37° C. Microvessels were visualized and recorded using a video camera mounted on a dissecting microscope. Vascular diameter was measured using a digital image analyzer. Vascular diameter was recorded before and after topical application of pre-constricting agent, U46619 (10^−7 M). After stabilization of preparation, the ligand (IL-1β, 75 ng/ml) was added until stable vasodilation was detected. Peptides were subsequently added at different concentrations from 10^−10 to 10^−5 M. Reversal of vasodilatation was visualized and measured as previously described (Hou, et al. 2000; Hou et al. 2001; Hou et al. 2003); triplicate measurements were conducted on 2 animals.

[5] = TNBS-induced inflammatory bowel disease rat model, Example 6 (48 h; MPO, macroscopic, histologic); format: in vivo; design: macroscopic evaluation (median score): scale not given here
Method: Colon inflammation was induced by intra-rectal/colon administration of the hapten trinitrobenzene sulphonic acid (TNBS) on male Sprague-Dawley rats (175-200 g) (Bouma, Nature Rev, 2003; Morris, Gastroenterology, 1989). Animals were anesthetized with isoflurane and TNBS dissolved in 50% ethanol (vol/vol). 120 mg/ml (TNBS) was administered into the colon (total volume of 0.25 ml per rat) using a polyethylene tube (PE50). The cannula was inserted at 8 cm from the anus and kept in place for at least 15 min after TNBS administration in order to prevent expulsion of the solution. […] A third group (control) was not injected with TNBS. Six days after administration of TNBS, rats were killed by CO2 inhalation. Day 6 was chosen as an endpoint because by day 7 spontaneous tissue regeneration begins and this can mask the therapeutic effect of the tested peptide or peptide derivative. Colon was removed and examined macroscopically (adhesions, ulcerations, discoloration and bleeding) and histologically (neutrophil infiltration, epithelial injury, crypt distortion and ulcerations) (Anthony et al. 1995; Padol et al. 2000; Dieleman, L A, et al. 1997; Torres M I et al. 1999). Two animals per group were studied.
Colon inflammation was induced by intra-rectal/colon administration of the hapten trinitrobenzene sulphonic acid (TNBS) as described in Example 4. Two hours prior to TNBS administration, peptides, peptidomimetics or 0.9% saline were administered intravenously (iv) via the caudal vein (various concentrations of mg/kg/d) (total volume of 0.3 ml). […] A third group (control) was not injected with TNBS. […] Also, these IL-1R antagonists were given twice a day (BID); Remicade® (anti-TNFα) (10 mg/kg) and dexamethasone (0.75 mg/kg) were administered intraperitoneally but only once a day (qd). The intrarectal administration (ir) of 101.10, 101.113 (1 and 2.5 mg/kg), and 5-ASA (50 mg/kg) was done one hour after TNBS administration, and twice a day, except for 5-ASA which is once a day. Finally, 101.10 (1-5 mg/kg) was also administered orally by gavage (po), twice a day. Forty-eight hours after administration of TNBS, rats were killed by CO2 inhalation. Colon was removed and assessed macroscopically (adhesions, ulcerations, discoloration and bleeding) and histologically (neutrophil infiltration, epithelial injury, crypt distortion and ulcerations). One to seven animals per group were studied, according to treatments. Myeloperoxidase (MPO) activity was measured on tissue lysates.

[6] = Table 4: TF-1 proliferation and PGE2 synthesis in endothelial cells, derivatives of 101.107
[7] = Intrarectal administration, 50.0-qd mg/kg/d
[8] = Table 5, derivatives of 101.113
[9] = Intermittent injection (ip), 10.0-qd mg/kg/d
[10] = Continuous infusion (ip), 8.0 mg/kg/d

Compound: APRYTVEAA [API-101.7]
inhibition of IL-1-induced PGE2 synthesis, compared with parent API-101 (IL-1R/IL-1RacP receptor [1]): lost almost all activity | inhibition of IL-1-induced PGE2 synthesis, compared with parent API-101 (IL-1R/IL-1RacP receptor [2]): lost almost all activity

Compound: CC(C)C[C@@H](NC(=O)[C@@H](CCC(=O)O)NC(=O)[C@H]1CCCN1C(=O)[C@H](NC(=O)[C@@H](Cc1ccc(O)cc1)NC(=O)[C@H](N)CCCCN)[C@H](C)O)C(=O)N[C@H](C)C(N)=O [API-101.114, KYTPELA] (HELM PEPTIDE1{[dK].[dY].[dT].[dP].[dE].[dL].[dA].[am]}$$$$V2.0; N-terminus and C-terminus assumed)
Emax (IL-1R/IL-1RacP receptor [1]): 50% | activity of the peptide, in words (IL-1R/IL-1RacP receptor [3]; [6]): maintains its activity

Compound: APRATVELA [API-101.3]
reversal of IL-1β-induced vasodilation (IL-1R/IL-1RacP receptor [4]): reversed the vasodilation

Compound: Nc1ccc(O)c(C(=O)O)c1 [5-ASA, reference compound]
MPO (% of TNBS + Saline) [5, 7]: 49 % of TNBS + Saline | histologic evaluation (median score) [5, 7]: 3.3 | macroscopic evaluation (median score) [5, 7]: 1.5

Compound: RFVPELA [API-101.127]
activity of the peptide, in words (IL-1R/IL-1RacP receptor [3]; [8]): completely abolished the activity

Compound: CC(C)C[C@@H](NC(=O)[C@@H](CCC(=O)O)NC(=O)[C@H]1CCCN1C(=O)[C@H](NC(=O)[C@@H](Cc1c[nH]c2ccccc12)NC(=O)[C@H](N)CCCNC(=N)N)[C@H](C)O)C(=O)N[C@H](C)C(N)=O [API-101.116, RWTPELA] (HELM PEPTIDE1{[dR].[dW].[dT].[dP].[dE].[dL].[dA].[am]}$$$$V2.0; N-terminus and C-terminus assumed)
Emax (IL-1R/IL-1RacP receptor [1]): 45%

Compound: XYTPEL (X = Ornithine) [API-101.126]
activity of the peptide, in words (IL-1R/IL-1RacP receptor [3]; [8]): little or no activity

Compound: Remicade: anti-TNFα [reference compound]
MPO (% of TNBS + Saline) [5, 9]: 88 ± 41 % of TNBS + Saline | histologic evaluation (median score) [5, 9]: 2.5 (1-3.75)** | macroscopic evaluation (median score) [5, 9]: 0.5

Compound: Kineret: natural soluble receptor IL-1Ra mimetic, Anakinra, developed by Amgen [reference compound]
MPO (% of TNBS + Saline) [5, 10]: 63 % of TNBS + Saline | histologic evaluation (median score) [5, 10]: 2 (Small ulcer (<5 crypts))

Compound: APRYTAELA [API-101.5]
inhibition of IL-1-induced PGE2 synthesis, compared with parent API-101 (IL-1R/IL-1RacP receptor [1]): lost almost all activity | inhibition of IL-1-induced PGE2 synthesis, compared with parent API-101 (IL-1R/IL-1RacP receptor [2]): lost almost all activity

Compound: C[C@@H]1C[C@H]2[C@@H]3CCC4=CC(=O)C=C[C@]4(C)[C@@]3(F)[C@@H](O)C[C@]2(C)[C@@]1(O)C(=O)CO [Dexamethasone, dexamethasone, reference compound]
MPO (% of TNBS + Saline) ([5]; Intermittent injection (ip), 0.75-qd mg/kg/d): 60 % of TNBS + Saline

Compound: CC(C)C[C@@H](NC(=O)[C@@H](CCC(=O)O)NC(=O)[C@H]1CCCN1C(=O)[C@H](NC(=O)[C@@H](Cc1ccc(O)cc1)NC(=O)[C@H](N)CCCN)[C@H](C)O)C(=O)N[C@H](C)C(N)=O [API-101.115, XYTPELA (X = Ornithine)] (HELM PEPTIDE1{[NCCC[C@@H](N)C(=O)[*:2]].[dY].[dT].[dP].[dE].[dL].[dA].[am]}$$$$V2.0; N-terminus and C-terminus assumed)
activity of the peptide, in words (IL-1R/IL-1RacP receptor [3]; [6]): maintains its activity

Compound: CC(C)C[C@@H](NC(=O)[C@@H](CC(=O)O)NC(=O)[C@H]1CCCN1C(=O)[C@H](NC(=O)[C@@H](Cc1ccc(O)cc1)NC(=O)[C@H](N)CCCNC(=N)N)[C@H](C)O)C(=O)N[C@H](C)C(N)=O [API-101.117, RYTPDLA] (HELM PEPTIDE1{[dR].[dY].[dT].[dP].[dD].[dL].[dA].[am]}$$$$V2.0; N-terminus and C-terminus assumed)
Emax (IL-1R/IL-1RacP receptor [1]): 100%

Further lines, results first:

activity of the peptide, in words (IL-1R/IL-1RacP receptor [3]; [8]): relatively decreased
Compound: CC(C)C[C@@H](NC(=O)[C@@H](CCC(=O)O)NC(=O)[C@H]1CCCN1C(=O)[C@H](NC(=O)[C@@H](Cc1ccccc1)NC(=O)[C@H](N)CCCNC(=N)N)[C@H](C)O)C(N)=O [API-101.132, RFTPEL] (HELM PEPTIDE1{[dR].[dF].[dT].[dP].[dE].[dL].[am]}$$$$V2.0; N-terminus and C-terminus assumed)

activity of the peptide, in words (IL-1R/IL-1RacP receptor [3]; [8]): little or no activity
Compound: KYTPEL ([dK][dY][dT][dP][dE][dL]) [API-101.133]

activity of the peptide, in words (IL-1R/IL-1RacP receptor [3]; [8]): little or no activity
Compound: CC(C)C[C@@H](NC(=O)[C@@H](CCC(=O)O)NC(=O)[C@H]1CCCN1C(=O)[C@H](NC(=O)[C@@H](Cc1ccc(O)cc1)NC(=O)[C@H](N)CCCNC(N)=O)[C@H](C)O)C(N)=O [API-101.134, XYTPEL (X = Citrulline)]

Emax (IL-1R/IL-1RacP receptor [3]; TF-1, Table 5): 100% | activity of the peptide, in words (IL-1R/IL-1RacP receptor [3]; [8]): relatively decreased
Compound: CC(C)C[C@@H](NC(=O)[C@@H](CCC(=O)O)NC(=O)[C@H]1CCCN1C(=O)[C@H](NC(=O)[C@@H](Cc1c[nH]c2ccccc12)NC(=O)[C@H](N)CCCNC(=N)N)[C@H](C)O)C(N)=O [API-101.128, RWTPEL]

activity of the peptide, in words (IL-1R/IL-1RacP receptor [3]; [8]): lowered but not lost completely
Compound: CC(C)C[C@@H](NC(=O)[C@@H](CCC(=O)O)NC(=O)[C@H]1CCCN1C(=O)[C@H](NC(=O)[C@@H](Cc1ccc(O)cc1)NC(=O)[C@@H](N)CCCNC(=N)N)[C@H](C)O)C(N)=O [API-101.135, *RYTPEL]

activity of the peptide, in words (IL-1R/IL-1RacP receptor [3]; [6]): completely lost
Compound: XRYTPELA (X = Acetyl) (Ac-[dR][dY][dT][dP][dE][dL][dA]) [API-101.121]
